Reference: patent US20220137027A1, “METHOD FOR EVALUATING MOLECULAR CHANGES RELATED TO A MOLECULE EFFECT IN A BIOLOGICAL SAMPLE” (IMABIOTECH, priority 2019, published 2022)

Key:
Format in all cases: in vivo, BALB/c mice
[1] = Epacadostat absolute quantification in CT26 tumor sections by QMSI (MALDI MSI)
Protocol: (§1) Colon carcinoma CT26 cell line was subcutaneously grafted into BALB/c mice (Charles River Laboratories, France). […] Tumors were sampled and snap frozen in liquid nitrogen for 15 s. The samples were kept at −80° C. until use. Ten micrometers thick tissue sections were obtained using a cryostat microtome (CM-3050S, Leica, Germany) with a microtome chamber and a specimen holder chilled at −23° C. Tissue sections were thaw mounted onto ITO-coated slides for downstream MALDI imaging and serial sections on SuperFrost slide for histological and immunohistochemistry (IHC) analysis. Biological replicates in duplicate (distant serial sections) were performed for analytical reproducibility. […] All animal experiments were compliant with the 2010/63/UE European Directive on Laboratory Animal Welfare and were approved by an Ethical Committee.
Then, low limit of detection (LOD), low limit of quantitation (LLOQ) and limit of linearity parameters were defined for the calibration curve that has been performed using at least 10 spotted concentrations on 10 μm thickness control tumor tissue sections. […] On the same ITO slide, calibration curve and tissue sections of interest (1 control and 3 treated in duplicates) were deposited and analyzed. Then, a uniform layer of filtrated 1,5-diaminonaphtalene (1,5-DAN) prepared at 10 mg/mL with 50/50 ACN/H2O matrix was deposited onto the tumor tissue sections using an HTX-TM sprayer device (HTX Technologies, LLC, Carrboro, N.C.). MALDI MSI analyses were performed using 7T MALDI-FTICR (SolariX XR, Bruker Daltonics, Bremen, Germany) with a SmartBeam II laser. […] Data acquisition was performed using the Flex software (FtmsControl 2.1.0) from Bruker Daltonics. Then, Multimaging software (ImaBiotech SAS) was used to obtain the calculated equation and to extract the different quantities in pmol/mm^2. A quantity conversion to μg/g of tissue was then obtained in created regions of interest (ROIs).
1.2 software (ImaBiotech SAS). This multimodal imaging platform combines quantitative mass spectrometry imaging (QMSI) and microscopy platform with statistical analysis for the understanding of the Omics information at cellular levels. MSI data were acquired from each tissue section as well as matrix control areas adjacent to the tissue sections to check for analyte dispersion/delocalization during sample preparation. Therefore, the ROIs related to EPA and/or Kyn presence were given by an image segmentation algorithm. […] Then, the algorithm smoothed the two ROIs to transform them into connected spaces. Finally, an exposure score was calculated using the Multimaging software using the formula: […]

[2] = Epacadostat quantification in CT26 tumor sections by LC-MS/MS; conditions: BALB/c, mouse, CT26 tumor tissue sections, 100 mg/kg oral gavage
[3] = Epacadostat quantification in plasma and blood; conditions: BALB/c, mouse, 100 mg/kg oral
[4] = target: T1, IDO1 (Mus musculus, UniProt P28776); experiment: Regional exposure to response analysis in segmented ROIs of treated CT26 tumor (Kyn, Lactate, IDO1 immunostaining)
T1 construct: Colon carcinoma CT26 cell line was subcutaneously grafted into BALB/c mice; from tissue
T1 sequence (P28776 whole entry): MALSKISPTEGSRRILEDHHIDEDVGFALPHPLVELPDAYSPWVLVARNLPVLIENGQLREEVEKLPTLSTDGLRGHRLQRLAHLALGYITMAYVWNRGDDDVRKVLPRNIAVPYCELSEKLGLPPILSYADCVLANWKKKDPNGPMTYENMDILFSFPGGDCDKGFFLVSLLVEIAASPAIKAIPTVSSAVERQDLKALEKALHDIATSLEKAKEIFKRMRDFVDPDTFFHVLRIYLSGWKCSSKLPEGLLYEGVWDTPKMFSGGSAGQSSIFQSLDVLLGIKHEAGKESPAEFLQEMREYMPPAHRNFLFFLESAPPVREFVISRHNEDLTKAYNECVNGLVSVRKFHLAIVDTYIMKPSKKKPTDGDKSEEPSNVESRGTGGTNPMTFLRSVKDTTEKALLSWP
Protocol: as §1
As Kyn was not detectable and Trp was slightly seen using classical method in CT26 tumor models, a derivatization strategy was necessary. The derivatization reaction amounts to adding the C11H16N+ (as X) unit to the neutral analyte. The agent was applied using an automatic sprayer (Suncollect, Sunchrom) and left during 30 min for incubation at room temperature. […] MSI data for kynurenine and tryptophan was recorded in positive ion mode (CASI, m/z range 350.0+/−150) at 120 μm of spatial resolution using an online calibration. […]
For MALDI MSI of other metabolites, a uniform layer of filtrated 1,5-diaminonaphtalene (1,5-DAN) prepared at 10 mg/mL with 50/50 ACN/H2O matrix was deposited onto the tumor tissue sections using an HTX-TM sprayer device (HTX Technologies, LLC, Carrboro, N.C.). […] MSI data for metabolites were recorded in full scan negative ion mode (m/z range 100-1000) at 120 μm of spatial resolution using an online calibration. […]
1.2 software (ImaBiotech SAS). This multimodal imaging platform combines quantitative mass spectrometry imaging (QMSI) and microscopy platform with statistical analysis for the understanding of the Omics information at cellular levels. […] Finally, an exposure score was calculated using the Multimaging software using the formula: […]

Work on NS(=O)(=O)NCCNc1nonc1C(=NO)Nc1ccc(F)c(Br)c1 [EPA, Epacadostat] yielded a Kp at 2 h ([1]; BALB/c, mouse, CT26 tumor relative to plasma, oral, 100 mg/kg, treated CT26 tumors, LC-MS/MS and QMSI) of 3 to 4, a concentration at 2 h ([1]; BALB/c, mouse, CT26 tumor section, ROI 1 (high EPA region), oral, 100 mg/kg, EPA quantity in ROI 1 (high EPA), QMSI, ROI 1 = 38% of tumor surface) of 68000 ng/g and a concentration at 2 h ([1]; BALB/c, mouse, CT26 tumor section, ROI 1, oral, 100 mg/kg, EPA quantity corresponding to the share in ROI 1, 61% of EPA signal) of 26000 ng/g. For the same compound, the concentration at 2 h ([1]; BALB/c, mouse, CT26 tumor section, ROI 2 (low EPA region), oral, 100 mg/kg, EPA quantity in ROI 2 (low EPA), QMSI, ROI 2 = 62% of tumor surface) was 25000 ng/g, the concentration at 2 h ([1]; BALB/c, mouse, CT26 tumor section, ROI 2, oral, 100 mg/kg, EPA quantity corresponding to the share in ROI 2, 39% of EPA signal) was 15000 ng/g and the concentration at 2 h ([1]; BALB/c, mouse, CT26 tumor section, ROI 3 (entire section), oral, 100 mg/kg, EPA quantity in ROI 3 (entire treated tumor section), QMSI) was 42000 ng/g. The concentration at 2 h ([1]; BALB/c, mouse, CT26 tumor tissue sections, po, 100 mg/kg, EPA quantity in treated CT26 tumor sections, three biological triplicates, QMSI, 100 mg/kg oral gavage, sacrificed 2 hours later) was 38000 to 53000 ng/g, the concentration at 2 h ([1]; BALB/c, mouse, CT26 tumor tissue sections, po, 100 mg/kg, average EPA quantity in CT26 tumor, QMSI, 100 mg/kg oral gavage, 2 hours) was 46000 ng/g and the concentration at 2 h ([1]; BALB/c, mouse, CT26 tumor tissue, oral, 100 mg/kg, available on tissue quantity of EPA in treated CT26 tumors, LC-MS/MS and QMSI) was 35000 to 48000 ng/g. For the same compound, the “share of EPA signal concentrated in ROI 1” value ([1]; ROI 1 = 38% of entire tissue section) was ~61%, the “share of EPA signal in ROI 2” value ([1]; ROI 2 = 62% left tumor region) was 39% and the concentration at 2 h [2] was 38500 ng/g. The concentration at 2 h ([3]; plasma) was 6600 ng/g, the concentration at 2 h ([3]; whole blood) was 7300 ng/g and the “correlation between IDO1 expression level (semi-quantitative histology) and EPA levels” value ([4]; IDO1 immunostaining on serial section) was “positive correlation”. The “share of Kyn present in ROI 1 (high EPA)” value ([4]; ROI 1 = 38% of the entire tumor) was 15% and the “share of Kyn present in ROI 2 (low EPA)” value ([4]; ROI 2) was 85%.
